Test results: patent US9676714B2, “Sulfonylindole derivatives and method for preparing the same” (Daewoong Pharmaceutical Co., Ltd., priority 2013, dated 2017)
Counter-ions that a name gives are not always drawn.

Biological target: T1, proton pump (H+/K+-ATPase) (Sus scrofa, UniProt P19156)
T1 construct: Gastric vesicles were prepared from hog stomach via centrifugal separation; from tissue; host or cells: hog stomach (gastric vesicles, method of Rabon et al. 1988)
Experiment: Measurement of inhibitory effects on proton pump (H+/K+-ATPase) activities
Type: biochemical
Settings: hog gastric vesicles, K+-specific H+/K+-ATPase activity, Tris-HCl buffer pH 7.4, 37° C. for 40 minutes, malachite green Pi readout
In short: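 Hog gastric vesicles in 60 mmol/l Tris-HCl pH 7.4 with 0.5% DMSO were treated with compounds at room temperature; reaction was started with 10 μl of 10 mmol/l ATP stock. Released Pi was read at 570 nm, K+-specific activity taken as the ±K+ difference. IC50 from 4-parameter logistic fit.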

T1 sequence (P19156 whole entry): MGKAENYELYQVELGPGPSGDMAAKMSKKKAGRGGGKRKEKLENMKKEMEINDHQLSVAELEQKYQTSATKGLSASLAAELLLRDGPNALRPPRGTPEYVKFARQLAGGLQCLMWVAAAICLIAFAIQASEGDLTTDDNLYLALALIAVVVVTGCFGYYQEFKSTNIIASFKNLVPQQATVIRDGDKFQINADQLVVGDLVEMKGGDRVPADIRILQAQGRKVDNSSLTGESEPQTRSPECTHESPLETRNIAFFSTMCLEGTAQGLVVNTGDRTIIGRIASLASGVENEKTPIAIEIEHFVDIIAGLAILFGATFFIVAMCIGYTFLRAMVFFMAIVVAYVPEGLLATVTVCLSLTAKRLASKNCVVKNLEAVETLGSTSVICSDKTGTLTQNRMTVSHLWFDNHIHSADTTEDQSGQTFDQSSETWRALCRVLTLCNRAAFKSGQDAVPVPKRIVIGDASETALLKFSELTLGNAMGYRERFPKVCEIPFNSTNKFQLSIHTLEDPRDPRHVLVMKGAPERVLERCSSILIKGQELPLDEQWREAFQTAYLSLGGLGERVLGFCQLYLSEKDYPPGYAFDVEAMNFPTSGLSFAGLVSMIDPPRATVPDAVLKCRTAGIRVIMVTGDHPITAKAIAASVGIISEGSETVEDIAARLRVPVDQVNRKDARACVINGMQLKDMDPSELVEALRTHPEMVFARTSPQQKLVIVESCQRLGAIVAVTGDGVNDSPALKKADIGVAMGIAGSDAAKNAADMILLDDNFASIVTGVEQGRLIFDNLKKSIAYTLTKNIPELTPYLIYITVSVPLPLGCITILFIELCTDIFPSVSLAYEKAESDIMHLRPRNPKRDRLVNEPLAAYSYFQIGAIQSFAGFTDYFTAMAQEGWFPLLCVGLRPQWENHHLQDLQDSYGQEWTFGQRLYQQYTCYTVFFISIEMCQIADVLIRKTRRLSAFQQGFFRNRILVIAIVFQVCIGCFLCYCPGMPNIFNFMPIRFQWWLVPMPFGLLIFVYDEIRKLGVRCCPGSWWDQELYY
T1 sequence (P18434 whole entry partner): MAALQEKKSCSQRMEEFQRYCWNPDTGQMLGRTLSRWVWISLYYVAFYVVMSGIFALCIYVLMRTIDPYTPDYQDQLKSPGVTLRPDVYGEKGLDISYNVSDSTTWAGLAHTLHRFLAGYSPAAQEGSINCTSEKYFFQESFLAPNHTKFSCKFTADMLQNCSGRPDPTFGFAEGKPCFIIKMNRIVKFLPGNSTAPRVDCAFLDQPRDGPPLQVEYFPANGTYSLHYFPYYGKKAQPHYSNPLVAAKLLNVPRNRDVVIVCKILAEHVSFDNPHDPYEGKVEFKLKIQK

Row | IC50 [nM] | SMILES
1 | 1030 | CNCc1cn(S(=O)(=O)c2cccnc2)c2cc(Nc3c(F)cc(F)cc3Cl)ccc12 [Example 83, N-(2-chloro-4,6-difluorophenyl)-3-((methylamino)methyl)-1-(pyridin-3-ylsulfonyl)-1H-indol-6-amine hydrochloride]
2 | 530 | CNCc1cn(S(=O)(=O)c2cccnc2)c2cc(Nc3c(Cl)cc(F)cc3Cl)ccc12 [Example 84, N-(2,6-dichloro-4-fluorophenyl)-3-((methylamino)methyl)-1-(pyridin-3-ylsulfonyl)-1H-indol-6-amine hydrochloride]
3 | 370 | CNCc1cn(S(=O)(=O)c2cccnc2)c2cc(Nc3c(C)cc(Cl)cc3C)ccc12 [Example 85, N-(4-chloro-2,6-dimethylphenyl)-3-((methylamino)methyl)-1-(pyridin-3-ylsulfonyl)-1H-indol-6-amine hydrochloride]
4 | 650 | CNCc1cn(S(=O)(=O)c2cccnc2)c2cc(Nc3c(F)cc(Cl)cc3F)ccc12 [Example 86, N-(4-chloro-2,6-difluorophenyl)-3-((methylamino)methyl)-1-(pyridin-3-ylsulfonyl)-1H-indol-6-amine hydrochloride]
5 | 400 | CNCc1cn(S(=O)(=O)c2cccnc2)c2cc(Nc3c(Cl)cc(Cl)cc3Cl)ccc12 [Example 87, 3-((methylamino)methyl)-1-(pyridin-3-ylsulfonyl)-N-(2,4,6-trichlorophenyl)-1H-indol-6-amine hydrochloride]
6 | 430 | CNCc1cn(S(=O)(=O)c2cccnc2)c2cc(Nc3c(F)cc(OC)cc3F)ccc12 [Example 88, N-(2,6-difluoro-4-methoxyphenyl)-3-((methylamino)methyl)-1-(pyridin-3-ylsulfonyl)-1H-indol-6-amine hydrochloride]
7 | 870 | CCOc1cc(F)c(Nc2ccc3c(CNC)cn(S(=O)(=O)c4cccnc4)c3c2)c(F)c1 [Example 89, N-(4-ethoxy-2,6-difluorophenyl)-3-((methylamino)methyl)-1-(pyridin-3-ylsulfonyl)-1H-indol-6-amine hydrochloride]
8 | 710 | CNCc1cn(S(=O)(=O)c2cccnc2)c2cc(Nc3c(C)cc(Br)cc3C)ccc12 [Example 90, N-(4-bromo-2,6-dimethylphenyl)-3-((methylamino)methyl)-1-(pyridin-3-ylsulfonyl)-1H-indol-6-amine hydrochloride]
9 | 870 | CNCc1cn(S(=O)(=O)c2cccnc2)c2cc(Nc3c(F)cc(F)cc3Br)ccc12 [Example 91, N-(2-bromo-4,6-difluorophenyl)-3-((methylamino)methyl)-1-(pyridin-3-ylsulfonyl)-1H-indol-6-amine hydrochloride]
10 | 1510 | CNCc1cn(S(=O)(=O)c2cccnc2)c2cc(Nc3c(F)cc(Br)cc3F)ccc12 [Example 92, N-(4-bromo-2,6-difluorophenyl)-3-((methylamino)methyl)-1-(pyridin-3-ylsulfonyl)-1H-indol-6-amine hydrochloride]
11 | 2220 | CNCc1cn(S(=O)(=O)c2cccnc2)c2cc(Nc3c(F)cc(Br)cc3Br)ccc12 [Example 93, N-(2,4-dibromo-6-fluorophenyl)-3-((methylamino)methyl)-1-(pyridin-3-ylsulfonyl)-1H-indol-6-amine hydrochloride]
12 | 780 | CNCc1cn(S(=O)(=O)c2cccnc2)c2cc(Nc3c(C)cc(Cl)cc3[N+](=O)[O-])ccc12 [Example 94, N-(4-chloro-2-methyl-6-nitrophenyl)-3-((methylamino)methyl)-1-(pyridin-3-ylsulfonyl)-1H-indol-6-amine hydrochloride]
13 | 480 | CNCc1cn(S(=O)(=O)c2cccnc2)c2cc(Nc3c(F)c(F)cc(F)c3F)ccc12 [Example 95, 3-((methylamino)methyl)-1-(pyridin-3-ylsulfonyl)-N-(2,3,5,6-tetrafluorophenyl)-1H-indol-6-amine hydrochloride]
14 | 1730 | CNCc1cn(S(=O)(=O)c2cccnc2)c2cc(Nc3c(F)c(F)c(C(F)(F)F)c(F)c3F)ccc12 [Example 96, 3-((methylamino)methyl)-1-(pyridin-3-ylsulfonyl)-N-(2,3,5,6-tetrafluoro-4-(trifluoromethyl)phenyl)-1H-indol-6-amine hydrochloride]
15 | 670 | CNCc1cn(S(=O)(=O)c2cccnc2)c2cc(Nc3ccc4c(c3)OCCO4)ccc12 [Example 97, N-(2,3-dihydrobenzo[b][1,4]dioxin-6-yl)-3-((methylamino)methyl)-1-(pyridin-3-ylsulfonyl)-1H-indol-6-amine hydrochloride]
16 | 1920 | CNCc1cn(S(=O)(=O)c2cccnc2)c2cc(Nc3ncccc3C)ccc12 [Example 98, 3-((methylamino)methyl)-N-(3-methylpyridin-2-yl)-1-(pyridin-3-ylsulfonyl)-1H-indol-6-amine hydrochloride]
17 | 1380 | CNCc1cn(S(=O)(=O)c2cccnc2)c2cc(Nc3ncccc3F)ccc12 [Example 99, N-(3-fluoropyridin-2-yl)-3-((methylamino)methyl)-1-(pyridin-3-ylsulfonyl)-1H-indol-6-amine hydrochloride]

Row | IC50 [nM] | SMILES
18 | 800 | CNCc1cn(S(=O)(=O)c2cccnc2)c2cc(Nc3ncccc3Cl)ccc12 [Example 100, N-(3-chloropyridin-2-yl)-3-((methylamino)methyl)-1-(pyridin-3-ylsulfonyl)-1H-indol-6-amine hydrochloride]
19 | 2200 | CNCc1cn(S(=O)(=O)c2cccnc2)c2cc(Nc3ncccc3C(F)(F)F)ccc12 [Example 101, 3-((methylamino)methyl)-1-(pyridin-3-ylsulfonyl)-N-(3-(trifluoromethyl)pyridin-2-yl)-1H-indol-6-amine hydrochloride]
20 | 2520 | CNCc1cn(S(=O)(=O)c2cccnc2)c2cc(Nc3ncccc3Br)ccc12 [Example 102, N-(3-bromopyridin-2-yl)-3-((methylamino)methyl)-1-(pyridin-3-ylsulfonyl)-1H-indol-6-amine hydrochloride]
21 | 880 | CNCc1cn(S(=O)(=O)c2cccnc2)c2cc(Nc3cccnc3C)ccc12 [Example 105, 3-((methylamino)methyl)-N-(2-methylpyridin-3-yl)-1-(pyridin-3-ylsulfonyl)-1H-indol-6-amine hydrochloride]
22 | 3380 | CNCc1cn(S(=O)(=O)c2cccnc2)c2cc(Nc3cccnc3F)ccc12 [Example 106, N-(2-fluoropyridin-3-yl)-3-((methylamino)methyl)-1-(pyridin-3-ylsulfonyl)-1H-indol-6-amine hydrochloride]
23 | 480 | CNCc1cn(S(=O)(=O)c2cccnc2)c2cc(Nc3cccnc3Cl)ccc12 [Example 107, N-(2-chloropyridin-3-yl)-3-((methylamino)methyl)-1-(pyridin-3-ylsulfonyl)-1H-indol-6-amine hydrochloride]
24 | 1980 | CNCc1cn(S(=O)(=O)c2cccnc2)c2cc(Nc3cccnc3C(F)(F)F)ccc12 [Example 109, 3-((methylamino)methyl)-1-(pyridin-3-ylsulfonyl)-N-(2-(trifluoromethyl)pyridin-3-yl)-1H-indol-6-amine hydrochloride]
25 | 5040 | CNCc1cn(S(=O)(=O)c2cccnc2)c2cc(Nc3cncc(Br)c3)ccc12 [Example 110, N-(5-bromopyridin-3-yl)-3-((methylamino)methyl)-1-(pyridin-3-ylsulfonyl)-1H-indol-6-amine hydrochloride]
26 | 3210 | CNCc1cn(S(=O)(=O)c2cccnc2)c2cc(Nc3ccc(C)nc3C)ccc12 [Example 111, N-(2,6-dimethylpyridin-3-yl)-3-((methylamino)methyl)-1-(pyridin-3-ylsulfonyl)-1H-indol-6-amine hydrochloride]
27 | 950 | CNCc1cn(S(=O)(=O)c2cccnc2)c2cc(Nc3ccc(C)nc3F)ccc12 [Example 112, N-(2-fluoro-6-methylpyridin-3-yl)-3-((methylamino)methyl)-1-(pyridin-3-ylsulfonyl)-1H-indol-6-amine hydrochloride]
28 | 340 | CNCc1cn(S(=O)(=O)c2cccnc2)c2cc(Nc3ccc(C)nc3Cl)ccc12 [Example 113, N-(2-chloro-6-methylpyridin-3-yl)-3-((methylamino)methyl)-1-(pyridin-3-ylsulfonyl)-1H-indol-6-amine hydrochloride]
29 | 1300 | CNCc1cn(S(=O)(=O)c2cccnc2)c2cc(Nc3ccc(C)nc3C(F)(F)F)ccc12 [Example 115, N-(6-methyl-2-(trifluoromethyl)pyridin-3-yl)-3-((methylamino)methyl)-1-(pyridin-3-ylsulfonyl)-1H-indol-6-amine hydrochloride]
30 | 1570 | CNCc1cn(S(=O)(=O)c2cccnc2)c2cc(Nc3ccc(F)nc3C)ccc12 [Example 116, N-(6-fluoro-2-methylpyridin-3-yl)-3-((methylamino)methyl)-1-(pyridin-3-ylsulfonyl)-1H-indol-6-amine hydrochloride]
31 | 480 | CNCc1cn(S(=O)(=O)c2cccnc2)c2cc(Nc3ccc(Cl)nc3C)ccc12 [Example 118, N-(6-chloro-2-methylpyridin-3-yl)-3-((methylamino)methyl)-1-(pyridin-3-ylsulfonyl)-1H-indol-6-amine hydrochloride]
32 | 480 | CNCc1cn(S(=O)(=O)c2cccnc2)c2cc(Nc3ccc(Cl)nc3Cl)ccc12 [Example 119, N-(2,6-dichloropyridin-3-yl)-3-((methylamino)methyl)-1-(pyridin-3-ylsulfonyl)-1H-indol-6-amine hydrochloride]
33 | 440 | CNCc1cn(S(=O)(=O)c2cccnc2)c2cc(Nc3ccc(Cl)nc3C(F)(F)F)ccc12 [Example 121, N-(6-chloro-2-(trifluoromethyl)pyridin-3-yl)-3-((methylamino)methyl)-1-(pyridin-3-ylsulfonyl)-1H-indol-6-amine hydrochloride]
